According to patent publication US20040086479A1, “Novel dendritic polymers, crosslinked gels, and their biomedical uses” (DUKE UNIVERSITY, priority 2001, published 2004):
≈ marks a conversion by molar mass, not a printed value.

Assay: Water solubility
Type: physicochemical

Structure (SMILES) | water solubility
CC[C@@]1(O)C(=O)OCc2c1cc1n(c2=O)Cc2cc3cc(O)ccc3nc2-1 [Example 10HCPT, 10-hydroxycamptothecin] | ~6 µM (≈ 2.19 µg/mL)
[O-]c1c(-c2ccccc2)cc(-[n+]2c(-c3ccccc3)cc(-c3ccccc3)cc2-c2ccccc2)cc1-c1ccccc1 [Reichardt's dye] | 10^−6 M
